The results in this text go back to ChEMBL document CHEMBL5543153, “Discovery of a Potent Dual Son of Sevenless 1 (SOS1) and Epidermal Growth Factor Receptor (EGFR) Inhibitor for the Treatment of Prostate Cancer” (J Med Chem, 2024).

The target in series [1] is T1, Son of sevenless homolog 1 (Homo sapiens) (UniProt Q07889).
T1 sequence (whole entry): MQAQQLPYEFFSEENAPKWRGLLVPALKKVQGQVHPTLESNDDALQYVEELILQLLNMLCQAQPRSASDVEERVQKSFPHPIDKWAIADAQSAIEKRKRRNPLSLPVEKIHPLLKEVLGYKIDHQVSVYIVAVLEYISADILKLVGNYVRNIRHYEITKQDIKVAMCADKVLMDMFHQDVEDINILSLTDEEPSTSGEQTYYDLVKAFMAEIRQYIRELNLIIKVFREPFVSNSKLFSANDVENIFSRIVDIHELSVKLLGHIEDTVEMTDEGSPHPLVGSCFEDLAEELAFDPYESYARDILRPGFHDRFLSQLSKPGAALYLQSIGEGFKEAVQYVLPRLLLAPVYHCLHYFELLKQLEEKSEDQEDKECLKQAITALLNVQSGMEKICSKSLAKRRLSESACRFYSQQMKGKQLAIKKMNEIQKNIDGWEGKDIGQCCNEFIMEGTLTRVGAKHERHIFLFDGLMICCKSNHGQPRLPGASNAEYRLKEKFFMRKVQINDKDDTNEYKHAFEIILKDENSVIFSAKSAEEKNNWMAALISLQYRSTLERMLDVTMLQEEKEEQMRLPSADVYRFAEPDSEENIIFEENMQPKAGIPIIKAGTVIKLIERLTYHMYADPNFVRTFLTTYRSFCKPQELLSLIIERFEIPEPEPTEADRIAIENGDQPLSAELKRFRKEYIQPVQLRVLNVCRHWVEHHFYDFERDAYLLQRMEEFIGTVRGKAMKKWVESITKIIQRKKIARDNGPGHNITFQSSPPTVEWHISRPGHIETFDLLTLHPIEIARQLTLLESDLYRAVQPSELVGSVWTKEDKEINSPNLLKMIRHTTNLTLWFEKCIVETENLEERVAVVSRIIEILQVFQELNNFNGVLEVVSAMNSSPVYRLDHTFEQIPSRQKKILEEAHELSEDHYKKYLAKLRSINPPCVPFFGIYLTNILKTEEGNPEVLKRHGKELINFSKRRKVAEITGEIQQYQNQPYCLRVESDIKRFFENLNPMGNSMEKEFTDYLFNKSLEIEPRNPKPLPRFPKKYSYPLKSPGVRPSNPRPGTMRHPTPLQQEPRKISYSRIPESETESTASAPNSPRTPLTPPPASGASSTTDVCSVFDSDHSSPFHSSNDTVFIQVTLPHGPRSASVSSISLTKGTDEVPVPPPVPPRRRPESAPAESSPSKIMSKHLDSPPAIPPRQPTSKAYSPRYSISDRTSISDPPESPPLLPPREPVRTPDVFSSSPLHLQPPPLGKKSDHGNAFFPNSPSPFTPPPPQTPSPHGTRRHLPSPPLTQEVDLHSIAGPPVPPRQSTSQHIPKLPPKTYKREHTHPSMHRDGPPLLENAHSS
Kind of series: Inhibition of human recombinant SOS1 at 10 uM relative to control.

Series [2] is described as follows: Antiproliferative activity against human RWPE-1 cells assessed as inhibition of cell growth incubated for 72 hrs by MTT assay. Format: toxicity, cell-based. On the technique in general: Formazan colour is commonly taken as a measure of viable cells.
For series [3], the system named is PC-3. Kind of series: Antiproliferative activity against human PC-3 cells transfected with EGFR shRNA assessed as inhibition of cell growth incubated for 72 hrs by MTT assay. In kind it is functional, cell-based. The settings on record: PC-3, 72 h.
Series [4] deals with Epidermal growth factor receptor (Homo sapiens, UniProt P00533). The experiment in a line: Inhibition of EGFR in human PC-3 cells assessed as downregulation of EGF-mediated AKT phosphorylation at 0.5 uM incubated for 15 mins in presence of EGF by Western blotting analysis. Format: cell-based. A general note: Immunoblotting shows a protein as a band on a membrane.
Series [5] concerns the target T1, Son of sevenless homolog 1 (Homo sapiens). The experiment in a line: Inhibition of SOS1 in human PC-3 cells assessed as downregulation of ERK phosphorylation at 2.5 uM incubated for 15 mins by Western blotting analysis. Format: cell-based.
The test system of series [6] is PC-3. The experiment in a line: Induction of apoptosis in human PC-3 cells assessed as viable cells at 2.5 uM by Annexin V-FITC staining based flow cytometry (reference value: 94.9%). Format: functional. As to conditions: read-out: Activity. In general terms: Flow cytometry measures light scatter and fluorescence of single cells or particles in a stream.
The test system of series [7] is PC-3. Kind of series: Induction of apoptosis in human PC-3 cells assessed as late apoptotic cells at 2.5 uM by Annexin V-FITC staining based flow cytometry (reference value: 1.93%). In kind it is functional.
For series [8], the system named is PC-3. The experiment in a line: Induction of cell cycle arrest in human PC-3 cells assessed as accumulation of cells at G1 phase at 0.5 uM by PI staining based flow cytometry (reference value: 75.66%). In kind it is functional.
Series [9] concerns PC-3. Kind of series: Induction of cell cycle arrest in human PC-3 cells assessed as downregulation of CDK4 expression by Western blotting analysis. In kind it is functional, cell-based.
For series [10], the system named is PC-3. Kind of series: Induction of cell cycle arrest in human PC-3 cells assessed as downregulation of cyclin D1 expression by Western blotting analysis. Format: functional, cell-based.
Series [11] relates to HUVEC. Kind of series: Antiangiogenic activity in HUVEC cells assessed as reduction in tube formation at 0.5 to 12.5 uM incubated for 8 hrs by matrigel based microscopic analysis. In kind it is functional, cell-based. The settings on record: Homo sapiens, dose 0.5-12.5 µM.
In series [12] the test system is HUVEC. The experiment in a line: Antiangiogenic activity in HUVEC cells assessed as reduction in total branching length at 0.5 to 12.5 uM incubated for 8 hrs by matrigel based microscopic analysis. In kind it is functional, cell-based. The settings on record: Homo sapiens, dose 0.5-12.5 µM.
The subject of series [13] is HUVEC. Kind of series: Antiangiogenic activity in HUVEC cells assessed as reduction of meshes at 0.5 to 12.5 uM incubated for 8 hrs by matrigel based microscopic analysis. In kind it is functional, cell-based. The settings on record: Homo sapiens, dose 0.5-12.5 µM.
Series [14] deals with HUVEC. The experiment in a line: Inhibition of cell migration in HUVEC cells assessed as reduction in migration index measured after 48 hrs by wound healing assay. In kind it is functional, cell-based. The settings on record: Homo sapiens.
Series [15] concerns PC-3. Kind of series: Antitumor activity against human PC-3 cells xenografted in BALB/c mouse assessed as reduction in tumor volume at 20 mg/kg,ip administrated once every 4 days for 24 days. In kind it is functional, organism-based. The settings on record: time 24.0 day.
The test system of series [16] is PC-3. Kind of series: Antitumor activity against human PC-3 cells xenografted in BALB/c mouse assessed as increase in apoptosis in tumor tissue at ip administrated once every 4 days for 24 days by TUNEL staining based immunohistochemical analysis. In kind it is functional, organism-based. As to conditions: time 24.0 day.
Series [17] deals with PC-3. Kind of series: Antitumor activity against human PC-3 cells xenografted in BALB/c mouse assessed as reduction in number of Ki67-positive cells in tumor tissue at ip administrated once every 4 days for 24 days by DAPI staining based immunohistochemical analysis. The settings on record: time 24.0 day. Format: functional, organism-based.
Series [18] is described as follows: Toxicity in BALB/c mouse xenografted with human PC-3 cells assessed as change in body weight at 5 mg/kg,ip administrated once every 4 days for 24 days. In kind it is organism-based. As to conditions: in vivo, 576 h, time 24 day.
Series [19] is described as follows: Toxicity in BALB/c mouse xenografted with human PC-3 cells assessed as heart pathological change at 5 mg/kg,ip administrated once every 4 days for 24 days by hematoxylin and eosin staining based analysis. Format: organism-based. As to conditions: in vivo, 576 h, time 24 day.
The nature of series [20]: Toxicity in BALB/c mouse xenografted with human PC-3 cells assessed as lung pathological change at 20 mg/kg,ip administrated once every 4 days for 24 days by hematoxylin and eosin staining based analysis. In kind it is organism-based. As to conditions: in vivo, 576 h, time 24 day.
The nature of series [21]: Toxicity in BALB/c mouse xenografted with human PC-3 cells assessed as kidney pathological change at 20 mg/kg,ip administrated once every 4 days for 24 days by hematoxylin and eosin staining based analysis. Format: organism-based. The settings on record: in vivo, 576 h, time 24 day.
A short description of series [22]: Toxicity in BALB/c mouse xenografted with human PC-3 cells assessed as change in AST level at 20 mg/kg,ip administrated once every 4 days for 24 days by automatic biochemical analyzer. In kind it is organism-based. As to conditions: in vivo, 576 h, time 24 day.

Calls of active or inactive are those of the source. The calls are words filed in the database; no cut-off is given here.

The inhibition is the percentage by which the read-out fell short of the control. What is called IC50 is the midpoint of a concentration-inhibition curve.

Chain of Epidermal growth factor receptor (P00533 whole entry): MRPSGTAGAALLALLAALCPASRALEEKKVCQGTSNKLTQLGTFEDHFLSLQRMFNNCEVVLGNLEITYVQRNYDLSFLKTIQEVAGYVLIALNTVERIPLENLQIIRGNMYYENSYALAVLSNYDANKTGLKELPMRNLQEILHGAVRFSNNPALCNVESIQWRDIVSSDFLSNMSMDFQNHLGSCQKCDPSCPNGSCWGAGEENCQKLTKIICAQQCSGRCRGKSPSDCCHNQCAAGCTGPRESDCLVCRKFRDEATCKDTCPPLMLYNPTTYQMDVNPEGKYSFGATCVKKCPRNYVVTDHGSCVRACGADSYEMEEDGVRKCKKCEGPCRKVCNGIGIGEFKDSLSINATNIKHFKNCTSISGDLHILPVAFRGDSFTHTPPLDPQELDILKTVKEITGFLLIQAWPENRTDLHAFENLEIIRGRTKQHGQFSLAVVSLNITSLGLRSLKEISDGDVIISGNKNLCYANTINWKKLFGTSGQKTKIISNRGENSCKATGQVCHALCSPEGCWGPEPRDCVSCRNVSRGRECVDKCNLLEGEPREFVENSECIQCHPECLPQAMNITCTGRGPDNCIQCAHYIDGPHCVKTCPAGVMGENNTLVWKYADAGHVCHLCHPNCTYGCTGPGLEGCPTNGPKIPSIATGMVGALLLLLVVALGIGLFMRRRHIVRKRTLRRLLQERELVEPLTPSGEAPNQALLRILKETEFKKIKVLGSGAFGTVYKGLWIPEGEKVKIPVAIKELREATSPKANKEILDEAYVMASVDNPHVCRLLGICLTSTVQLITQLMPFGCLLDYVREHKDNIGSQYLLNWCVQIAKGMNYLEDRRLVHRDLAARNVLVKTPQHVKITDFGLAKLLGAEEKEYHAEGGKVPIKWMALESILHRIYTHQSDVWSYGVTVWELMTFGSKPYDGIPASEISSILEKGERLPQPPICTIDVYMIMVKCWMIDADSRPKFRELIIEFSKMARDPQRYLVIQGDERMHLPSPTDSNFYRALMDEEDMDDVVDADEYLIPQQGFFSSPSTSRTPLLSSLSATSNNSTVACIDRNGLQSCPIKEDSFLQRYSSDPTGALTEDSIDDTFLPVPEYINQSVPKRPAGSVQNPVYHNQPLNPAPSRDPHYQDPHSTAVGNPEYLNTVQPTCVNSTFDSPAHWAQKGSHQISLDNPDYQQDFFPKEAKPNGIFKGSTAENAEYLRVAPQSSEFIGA

As for `COc1cc2ncnc(N[C@H](C)c3cccc(F)c3)c2cc1OC1CCOCC1`, the results for the inhibition in series [1] and in [14] were 97% and “Dose-Dependent Effect”, respectively. Besides, the IC50 at 72 h in [2] was more than 10 µM. The half-inhibitory concentration (IC50) in series [3] is 5.48 µM. Further, the inhibition result in series [4] and in [5] was “Active” each time. Also, the viability at 2.5 µM in series [6] came out at 79.1%. Besides, the Activity in [7] is 3.36%; in series [8] it was 79.45%; in [9], “Dose-Dependent Effect”; in series [10] it was “Dose-Dependent Effect”; in series [16] it was “Dose-Dependent Effect”; in series [17] it was “Dose-Dependent Effect”. Besides, the Activity result in series [18] is “Toxic”; in series [19] it was “Toxic”; in series [20], “Toxic”; in [21], “Toxic”; in series [22] it was “Non-Toxic”. Further, the result in series [11], in [12], in series [13] and in [15] was Active.
